# Source: ChEMBL document CHEMBL3885861, “Open TG-GATES”
# Species on record: Rattus norvegicus
# Test: Open TG-GATES - Regimen: Single
# Type: toxicity, organism-based, Sprague-Dawley
# Parameters: regimen Single, gender Male, age 6 weeks
# Details: in vivo, po, route gavage; for APTT / Bas / Eos / Fbg / Hb / Ht / Lym / MCV / Mono / PT / Plat / RBC / Ret / WBC / MCHC / Neu: tissue Blood; for ALP / ALT / AST / BUN / CRE / Ca / Cl / DBIL / GLC / IP / K / LDH / Na / PL / RALB / TBIL / TC / TG / TP / gamma-GTP: tissue Plasma
# [1] = 0 mg/kg, 3 h, dose level Control
# [2] = 0 mg/kg, 6 h, dose level Control
# [3] = 0 mg/kg, 9 h, dose level Control
# [4] = 0 mg/kg, 24 h, dose level Control
smiles,measurement,setting,value
O=C(O)c1cccnc1 [NIACIN],APTT,[1],24 s
same,Bas,[1],0%
same,Eos,[1],0.8%
same,Fbg,[1],311.4 mg/dL
same,Hb,[1],13.5 g/dL
same,Ht,[1],40.1%
same,Lym,[1],81.2%
same,MCV,[1],63.7 fL
same,Mono,[1],2.2%
same,PT,[1],16.4 s
same,Plat,[1],118.4 x10_4/uL
same,RBC,[1],630 x10_4/ul
same,Ret,[1],7.9%
same,WBC,[1],80.3 x10_2/uL
same,ALP,[1],1666.4 IU/L
same,ALT,[1],44.8 IU/L
same,AST,[1],68.6 IU/L
same,BUN,[1],12.8 mg/dL
same,CRE,[1],0.1 mg/dL
same,Ca,[1],11 mg/dL
same,Cl,[1],102.6 meq/L
same,DBIL,[1],0 mg/dL
same,GLC,[1],182.4 mg/dL
same,IP,[1],9.1 mg/dL
same,K,[1],4.2 meq/L
same,LDH,[1],165 IU/L
same,Na,[1],140.8 meq/L
same,PL,[1],138.6 mg/dL
same,RALB,[1],2.9 g/dL
same,TBIL,[1],0.002 mg/dL
same,TC,[1],80.8 mg/dL
same,TG,[1],48.2 mg/dL
same,TP,[1],5.7 g/dL
same,gamma-GTP,[1],1.4 IU/L
same,Bas,[2],0%
same,Eos,[2],0.8%
same,Fbg,[2],304 mg/dL
same,Hb,[2],13.6 g/dL
same,Ht,[2],40.5%
same,Lym,[2],76.2%
same,MCHC,[2],33.7%
same,MCV,[2],62.9 fL
same,Mono,[2],2.8%
same,PT,[2],16.5 s
same,Plat,[2],116.7 x10_4/uL
same,RBC,[2],643.6 x10_4/ul
same,Ret,[2],7.8%
same,WBC,[2],105.2 x10_2/uL
same,ALP,[2],1639.8 IU/L
same,ALT,[2],37.8 IU/L
same,AST,[2],72.2 IU/L
same,BUN,[2],12.6 mg/dL
same,CRE,[2],0.1 mg/dL
same,Ca,[2],10.8 mg/dL
same,Cl,[2],103.6 meq/L
same,DBIL,[2],0 mg/dL
same,GLC,[2],196.8 mg/dL
same,IP,[2],9.5 mg/dL
same,K,[2],4.3 meq/L
same,LDH,[2],211.2 IU/L
same,Na,[2],140.2 meq/L
same,PL,[2],141 mg/dL
same,RALB,[2],3 g/dL
same,TBIL,[2],0.008 mg/dL
same,TC,[2],79.2 mg/dL
same,TG,[2],68.4 mg/dL
same,TP,[2],5.5 g/dL
same,gamma-GTP,[2],1 IU/L
same,Bas,[3],0%
same,Eos,[3],0.8%
same,Fbg,[3],312.8 mg/dL
same,Hb,[3],13 g/dL
same,Ht,[3],39.1%
same,Lym,[3],81.4%
same,MCHC,[3],33.3%
same,MCV,[3],62.3 fL
same,Mono,[3],2.6%
same,Neu,[3],13.8%
same,Plat,[3],119.2 x10_4/uL
same,RBC,[3],627.8 x10_4/ul
same,Ret,[3],8%
same,WBC,[3],95.1 x10_2/uL
same,ALP,[3],1434.4 IU/L
same,ALT,[3],38.4 IU/L
same,AST,[3],70.6 IU/L
same,BUN,[3],11.8 mg/dL
same,CRE,[3],0.2 mg/dL
same,Ca,[3],10.7 mg/dL
same,Cl,[3],104 meq/L
same,DBIL,[3],0.004 mg/dL
same,GLC,[3],185.4 mg/dL
same,IP,[3],9.4 mg/dL
same,K,[3],4.2 meq/L
same,LDH,[3],177.2 IU/L
same,Na,[3],140.4 meq/L
same,PL,[3],129 mg/dL
same,RALB,[3],3 g/dL
same,TBIL,[3],0.01 mg/dL
same,TC,[3],74.4 mg/dL
same,TG,[3],52.2 mg/dL
same,TP,[3],5.5 g/dL
same,gamma-GTP,[3],1.2 IU/L
same,Bas,[4],0%
same,Eos,[4],1%
same,Fbg,[4],327.2 mg/dL
same,Hb,[4],13.2 g/dL
same,Ht,[4],39.3%
same,Lym,[4],81.2%
same,MCHC,[4],33.6%
same,MCV,[4],63.3 fL
same,Mono,[4],2.6%
same,Neu,[4],14%
same,PT,[4],16.1 s
same,Plat,[4],120.2 x10_4/uL
same,RBC,[4],621.2 x10_4/ul
same,Ret,[4],7.5%
same,WBC,[4],115.4 x10_2/uL
same,ALP,[4],1844 IU/L
same,ALT,[4],45 IU/L
same,AST,[4],70 IU/L
same,BUN,[4],15.6 mg/dL
same,CRE,[4],0.2 mg/dL
same,Ca,[4],10.6 mg/dL
same,Cl,[4],104.2 meq/L
same,DBIL,[4],0 mg/dL
same,GLC,[4],197.2 mg/dL
same,IP,[4],8.2 mg/dL
same,K,[4],4.3 meq/L
same,LDH,[4],200 IU/L
same,Na,[4],140.4 meq/L
same,PL,[4],147.6 mg/dL
same,RALB,[4],3 g/dL
same,TBIL,[4],0.002 mg/dL
same,TC,[4],74.6 mg/dL
same,TG,[4],104 mg/dL
same,TP,[4],5.5 g/dL
same,gamma-GTP,[4],1.4 IU/L
same,APTT,"100 mg/kg, 3 h, dose level Low",22.6 s
